Measured values reported in PMC9295122, “Sialic Acid Derivatives Inhibit SiaT Transporters and Delay Bacterial Growth” (ACS Chemical Biology, 2022).
Where two headings read alike, the source gives them in different places.

Columns and labels:
PmSiaT = target: T1, PmSiaT (Proteus mirabilis, UniProt B4EZY7); assay: nanoDSF thermal shift assay, PmSiaT; format: binding; conditions: for Average 1 / Average 2 / Average 3 / Replicate 1 / Replicate 2 / Replicate 3: PmSiaT Tm; for Average 1: average of experiment 1; for Average 2: average of experiment 2; for Average 3: average of experiment 3; for Replicate 1: experiment 1, second capillary; for Replicate 1 / Replicate 2 / Replicate 3 / Tm 1 / Tm2 / Tm 3 / Tm average overall / ΔTm at 1250 µM: 1.25 mM; for Replicate 2: experiment 2, second capillary; for Replicate 3: experiment 3, second capillary; for Tm 1 / ΔTm / Tm2 / Tm 3 / Tm average overall / ΔTm at 1250 µM: PmSiaT; for Tm 1: experiment 1, first capillary; for Tm2: experiment 2, first capillary; for Tm 3: experiment 3, first capillary; for Tm average overall / ΔTm at 1250 µM: three experiments; for ΔTm at 1250 µM: vs Neu5Ac, read-out: ΔTm average overall
T1 construct: made in house
T1 sequence (B4EZY7 1-496): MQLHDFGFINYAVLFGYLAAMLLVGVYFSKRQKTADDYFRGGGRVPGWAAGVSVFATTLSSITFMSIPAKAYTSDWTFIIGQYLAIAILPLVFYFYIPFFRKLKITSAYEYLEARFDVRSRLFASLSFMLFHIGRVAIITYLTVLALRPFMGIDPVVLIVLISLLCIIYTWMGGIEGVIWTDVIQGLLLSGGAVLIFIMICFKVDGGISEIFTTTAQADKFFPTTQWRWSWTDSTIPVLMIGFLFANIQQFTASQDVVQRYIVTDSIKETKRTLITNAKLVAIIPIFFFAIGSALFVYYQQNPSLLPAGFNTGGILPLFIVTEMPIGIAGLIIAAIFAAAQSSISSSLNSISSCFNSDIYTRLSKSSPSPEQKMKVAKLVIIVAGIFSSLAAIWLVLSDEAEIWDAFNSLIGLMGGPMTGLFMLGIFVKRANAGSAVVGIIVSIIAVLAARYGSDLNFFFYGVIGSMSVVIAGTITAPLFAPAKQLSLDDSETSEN
Method: (§1) Nano-differential scanning fluorimetry (nanoDSF) is a high-throughput method that relies on the thermal stabilization of the folded protein state by a bound ligand.[33]
(§2) The melting points of protein–inhibitor complexes were measured on a Prometheus NT.48 instrument from NanoTemper Technologies. Solutions containing the protein at 2 μM in phosphate buffered saline with 0.0174% (w/v) dodecylmaltoside (DDM) and the ligand at 1.25 mM were loaded onto standard capillaries by NanoTemper. The temperature was increased from 25 to 95 °C at a ramp rate of 1 °C/min. The fluorescence was recorded at 330 and 350 nm and as a ratio of the two wavelengths.
(§3) The intensity ratio and its first derivative were calculated using manufacturer’s software (PR.ThermControl, version 2.1.2).
(§4) The melting temperatures have been measured in 3 separate experiments. In each experiment, two capillaries were included per compound, having therefore 2 technical replicates per experiment. In the table all data is presented. Tm1 and Replicate 1 represent the two replicates of the first experiment. Average 1 is the average between Tm 1 and Replicate 1. ΔTm 1 is the thermal shift when compared to the Tm of Neu5Ac. This is calculated from Average 1. The ΔTm presented in the article are the ΔTm average overall, which represent the overall average of the averages from the three experiments. The standard deviation (SD) is calculated from the […]

SaSiaT = SaSiaT (Staphylococcus aureus, UniProt A0A0H2XJ46); assay: nanoDSF thermal shift assay, SaSiaT; format: binding; conditions: for Average 1 / Average 2 / Average 3 / Replicate 1 / Replicate 2 / Replicate 3: SaSiaT Tm; for Average 1: average of experiment 1; for Average 2: average of experiment 2; for Average 3: average of experiment 3; for Replicate 1: experiment 1, second capillary; for Replicate 1 / Replicate 2 / Replicate 3 / Tm 1 / Tm2 / Tm 3 / Overall average (Tm): 1.25 mM; for Replicate 2: experiment 2, second capillary; for Replicate 3: experiment 3, second capillary; for Tm 1 / Tm2 / Tm 3 / Overall average (Tm): SaSiaT; for Tm 1: experiment 1, first capillary; for Tm2: experiment 2, first capillary; for Tm 3: experiment 3, first capillary; for Overall average (Tm): three experiments
Method: as §1, §2, §3, §4

[1] = experiment 1, vs Neu5Ac, read-out: ΔTm 1
[2] = experiment 2, vs Neu5Ac, read-out: ΔTm 2
[3] = experiment 3, vs Neu5Ac, read-out: ΔTm 3

SaSiaT, sequence (A0A0H2XJ46 entry or part of it): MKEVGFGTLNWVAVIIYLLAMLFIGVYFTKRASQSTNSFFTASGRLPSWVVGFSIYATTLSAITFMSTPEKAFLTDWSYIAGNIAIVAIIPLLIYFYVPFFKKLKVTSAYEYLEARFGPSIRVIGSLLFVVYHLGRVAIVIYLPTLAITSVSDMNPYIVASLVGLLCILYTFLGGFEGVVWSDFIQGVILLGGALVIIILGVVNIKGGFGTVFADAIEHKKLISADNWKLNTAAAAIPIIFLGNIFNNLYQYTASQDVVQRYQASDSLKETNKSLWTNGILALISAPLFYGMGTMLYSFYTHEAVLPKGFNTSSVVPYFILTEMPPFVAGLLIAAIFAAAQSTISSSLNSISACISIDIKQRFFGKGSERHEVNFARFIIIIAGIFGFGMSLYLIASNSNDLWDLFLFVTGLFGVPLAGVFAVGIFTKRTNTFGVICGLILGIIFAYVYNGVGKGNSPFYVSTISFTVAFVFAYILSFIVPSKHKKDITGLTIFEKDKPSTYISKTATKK

SMILES	Average 2 (PmSiaT)	Average 3 (PmSiaT)	Replicate 1 (PmSiaT)	Replicate 2 (PmSiaT)	Replicate 3 (PmSiaT)	Tm 1 (PmSiaT)	ΔTm (PmSiaT; [1])	Tm2 (PmSiaT)	ΔTm (PmSiaT; [2])	Tm 3 (PmSiaT)	ΔTm (PmSiaT; [3])	Tm average overall (PmSiaT)	ΔTm at 1250 µM (PmSiaT)	Average 1 (SaSiaT)	Average 2 (SaSiaT)	Average 3 (SaSiaT)	Replicate 1 (SaSiaT)	Replicate 2 (SaSiaT)	Replicate 3 (SaSiaT)	Tm 1 (SaSiaT)	also measured
CC(=O)NC1C(OCc2ccc(F)cc2)CC(O)(C(=O)O)OC1C(O)C(O)CO (stereo not drawn) [Compound 3b]	53.2 °C	53.1 °C	53.4 °C	53.4 °C	53.2 °C	53.1 °C	4.2 °C	53.1 °C	4 °C	53.0 °C	3.8 °C	53.2 °C	4 °C	56.4 °C	56.2 °C	56.7 °C	56.4 °C	56.2 °C	56.4 °C	56.4 °C	Average 1 (PmSiaT): 53.2 °C; Tm2 (SaSiaT): 56.3 °C; Tm 3 (SaSiaT): 56.9 °C; Overall average (Tm) (SaSiaT): 56.4 °C
CC(=O)NC1C(OCc2ccc(Br)cc2)CC(O)(C(=O)O)OC1C(O)C(O)CO (stereo not drawn) [Compound 3c]	55.9 °C	56.0 °C	56.7 °C	56.0 °C	56.1 °C	56.6 °C	7.7 °C	55.8 °C	6.7 °C	56.0 °C	6.7 °C	56.2 °C	7 °C	54.2 °C	53.5 °C	54.5 °C	54.4 °C	53.5 °C	54.4 °C	54.1 °C	Average 1 (PmSiaT): 56.7 °C; Tm2 (SaSiaT): 53.5 °C; Tm 3 (SaSiaT): 54.5 °C; Overall average (Tm) (SaSiaT): 54.1 °C
CC(=O)NC1C(OCc2ccc(C#N)cc2)CC(O)(C(=O)O)OC1C(O)C(O)CO (stereo not drawn) [Compound 3d]	53.7 °C	54.1 °C	55.4 °C	53.8 °C	54.1 °C	55.2 °C	6.3 °C	53.6 °C	4.5 °C	54.2 °C	4.8 °C	54.4 °C	5.2 °C	54.4 °C	53.6 °C	53.0 °C	54.3 °C	53.6 °C	53.9 °C	54.4 °C	Average 1 (PmSiaT): 55.3 °C; Tm2 (SaSiaT): 53.6 °C; Tm 3 (SaSiaT): 52.0 °C; Overall average (Tm) (SaSiaT): 53.7 °C
CCC(=O)NC1C(O)CC(O)(C(=O)O)OC1C(O)C(O)CO (stereo not drawn) [Compound 6a]	46.8 °C	46.7 °C	46.8 °C	46.8 °C	46.6 °C	46.8 °C	-2.2 °C	46.8 °C	-2.4 °C	46.7 °C	-2.6 °C	46.8 °C	-2.4 °C	40.8 °C	41.9 °C	42.2 °C	40.9 °C	41.8 °C	42.1 °C	40.8 °C	Tm2 (SaSiaT): 42.0 °C; Tm 3 (SaSiaT): 42.3 °C; Overall average (Tm) (SaSiaT): 41.6 °C
CC(C)C(=O)NC1C(O)CC(O)(C(=O)O)OC1C(O)C(O)CO (stereo not drawn) [Compound 6b]	47.1 °C	47.0 °C	47.1 °C	47.0 °C	47.0 °C	47.1 °C	-1.9 °C	47.2 °C	-2.1 °C	47.0 °C	-2.3 °C	47.1 °C	-2.1 °C	45.1 °C	44.6 °C	45.2 °C	45.0 °C	44.6 °C	45.1 °C	45.1 °C	Tm2 (SaSiaT): 44.6 °C; Tm 3 (SaSiaT): 45.3 °C; Overall average (Tm) (SaSiaT): 45.0 °C
CC(C)(C)C(=O)NC1C(O)CC(O)(C(=O)O)OC1C(O)C(O)CO (stereo not drawn) [Compound 6c]	46.7 °C	46.7 °C	46.3 °C	46.7 °C	46.6 °C	46.6 °C	-2.5 °C	46.7 °C	-2.5 °C	46.7 °C	-2.6 °C	46.6 °C	-2.5 °C	43.5 °C	44.2 °C	43.8 °C	43.4 °C	44.1 °C	43.6 °C	43.6 °C	Tm2 (SaSiaT): 44.2 °C; Tm 3 (SaSiaT): 43.9 °C; Overall average (Tm) (SaSiaT): 43.8 °C
